Experimental data from patent US20070224287A1, “Methods of Modulating Inflammatory Reactions by Modulating Xanthine Oxidoreductase Activity” (priority 2003, published 2007).
One block for each molecule: values may come before it.

How the values were obtained:
O-form XOR = molecular target: T1, O-form XOR (Rattus norvegicus, UniProt P22985); test: DTT reduction of O-form XOR in soluble lung protein extracts; type: biochemical; settings: 5 nM DTT at 37° C. for one hour, re-chromatographed on sephadex G25 (FIG. 1e)
T1 construct: Total XOR activity in lung and liver tissue was determined using whole tissue protein extracts; from tissue; host or cells: lung (and liver) of Sprague-Dawley rats
T1 sequence (P22985 whole entry): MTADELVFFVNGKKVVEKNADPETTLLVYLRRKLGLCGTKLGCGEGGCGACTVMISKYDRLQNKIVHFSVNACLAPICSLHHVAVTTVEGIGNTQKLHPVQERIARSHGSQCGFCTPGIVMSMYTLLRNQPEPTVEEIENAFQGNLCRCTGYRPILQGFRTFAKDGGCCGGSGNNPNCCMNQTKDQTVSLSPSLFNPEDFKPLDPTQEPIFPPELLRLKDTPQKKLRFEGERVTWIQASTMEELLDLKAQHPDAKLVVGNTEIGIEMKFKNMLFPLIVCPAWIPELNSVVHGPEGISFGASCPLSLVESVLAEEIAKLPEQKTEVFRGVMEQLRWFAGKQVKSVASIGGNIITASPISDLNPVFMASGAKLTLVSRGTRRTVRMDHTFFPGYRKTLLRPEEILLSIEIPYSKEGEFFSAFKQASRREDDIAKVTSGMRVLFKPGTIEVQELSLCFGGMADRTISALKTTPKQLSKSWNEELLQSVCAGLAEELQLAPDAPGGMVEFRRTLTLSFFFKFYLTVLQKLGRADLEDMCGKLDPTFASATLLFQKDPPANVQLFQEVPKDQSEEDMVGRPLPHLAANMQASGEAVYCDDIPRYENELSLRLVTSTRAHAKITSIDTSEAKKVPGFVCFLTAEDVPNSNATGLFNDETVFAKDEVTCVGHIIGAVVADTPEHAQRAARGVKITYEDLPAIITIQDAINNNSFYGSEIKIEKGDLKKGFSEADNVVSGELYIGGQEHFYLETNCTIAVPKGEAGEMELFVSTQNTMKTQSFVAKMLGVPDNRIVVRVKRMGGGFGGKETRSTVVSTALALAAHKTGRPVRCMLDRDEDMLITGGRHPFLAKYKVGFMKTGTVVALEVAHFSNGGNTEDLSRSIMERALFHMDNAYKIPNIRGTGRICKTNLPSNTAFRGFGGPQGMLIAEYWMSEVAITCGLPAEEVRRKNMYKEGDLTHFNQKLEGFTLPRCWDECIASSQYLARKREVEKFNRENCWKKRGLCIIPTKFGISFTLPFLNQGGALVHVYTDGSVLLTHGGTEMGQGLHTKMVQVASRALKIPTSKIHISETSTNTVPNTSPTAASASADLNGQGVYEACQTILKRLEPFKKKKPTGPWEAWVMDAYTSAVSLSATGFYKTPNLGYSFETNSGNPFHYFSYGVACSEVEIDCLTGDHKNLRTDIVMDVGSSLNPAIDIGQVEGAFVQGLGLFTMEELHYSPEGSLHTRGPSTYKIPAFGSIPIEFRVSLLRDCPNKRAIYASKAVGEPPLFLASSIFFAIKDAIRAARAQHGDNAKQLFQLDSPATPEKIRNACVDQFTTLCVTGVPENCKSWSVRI
Protocol: FIGS. 1A-E. Lung XOR induction following cytokine insufflation. Total lung and liver XOR activity was quantitated in the presence of NAD^+ in soluble desalted protein extracts from rats that were insufflated 24h before with saline, IL-1, IFN-γ or IL-1 and IFN-γ. […] IL-1 and IFN-γ insufflated rats had increased (**, p<0.02) lung (A), but not (p>0.05) liver (B), XOR activity compared to rats insufflated with saline, IL-1 (*, p<0.05), or IFN-γp>0.05). (C) Western immunoblot analysis of lung XOR from cytokine insufflated rats. Antibody to rat β-actin was used to control for gel loading. Gels were scanned with a Perkin-Elmer phosphoimager for semi-quantitation. Data are shown for two rats in each group. […] (D) The percentage of O-form XOR was quantitated in soluble protein extracts of cytokine insufflated rat lungs. […] Rats insufflated with IL-1 and IFN-γ had increased (*, p<0.05) lung O-form XOR activity compared to rats insufflated with saline, IL-1 or IFN-γ. […]
We quantitated the levels of O-form XOR in untreated or cytokine insufflated rat lungs. […] Soluble lung protein extracts from insufflated rats were exposed to 5 nM DTT at 37° C. for one hour and were re-chromatographed on sephadex G25 after which D-form and O-form content was re-measured. […]

[1] = test system: leukocyte-chemokine expression and leukocyte accumulation; settings: endotoxemic model of liver injury; cited from earlier work
[2] = test system: patients with chronic heart failure (CHF), cardiomyopathy, or undergoing heart surgery; settings: cited from earlier work
Id-2 = test: Western immunoblot of Id-2 from BALF cells; type: in vivo, rat; settings: 24 hours following cytokine insufflation, allopurinol vs control fed rats
Protocol: Western immunoblot analysis of the differential inhibitor, Id-2, from BALF cells obtained 24 hours following cytokine insufflation in allopurinol (A) or control (C) fed rats.

[3] = test system: acute gastric mucosal lesions; settings: rats; cited from earlier work
pancreatic fibrosis = settings: rats treated with diethyldithiocarbamate; cited from earlier work
[4] = test system: PMN accumulation in the eye; settings: uveitis, even after the onset of disease; cited from earlier work
[5] = test system: pancreatitis and vascular injury; settings: L-arginine induced pancreatic inflammation in rats; cited from earlier work
alveolar cells = test: TUNEL staining and morphometric analysis; type: in vivo, rat; settings: prior feeding with diet, IL-1 and IFN-γ insufflation 24 h before (FIG. 4f,g)
Protocol: TUNEL staining and morphometric analysis. The TUNEL assay was used to detect apoptotic cells in fixed lung sections. After fixation with 4% buffered formalin, lung tissue sections were embedded in paraffin, sectioned at […], and mounted on glass slides. Slides were de-paraffinized, rehydrated for 10 min in PBS, and treated with 0.002% proteinase K (Sigma) in distilled water for 5 to 15 min at room temperature. Terminal deoxynucleotidyl transferase (TdT) was used for labeling of DNA nicks using the TACS kit (Trevigen, Inc., Gaithersburg, Md.). Counterstaining with DAPI was done to stain nuclear DNA and with Rhodamine coupled wheat germ agglutinin (WGA, Molecular Probes, Eugene, Oreg.) to stain the structural architecture. TUNEL positive cell staining appeared as green fluorescence in the nuclei of clearly defined alveolar cells. Background nuclear staining appeared as blue while the tissue architecture was red.

[6] = test system: colonic leukocyte-chemokine expression and leukocyte accumulation; settings: mice; cited from earlier work
MNP XOR = molecular target: T2, MNP XOR (Rattus norvegicus, UniProt P22985); test: Cell transfer experiment: BALF cells treated in vitro and insufflated into control rats; type: in vivo; settings: BALF cells exposed 15 min to 150 μM allopurinol in vitro, 2×10^6 cells insufflated into control rats, BALF 24 hours later, p<0.05 vs control cells (FIG. 5c)
T2 construct: endogenous in cells; host or cells: BALF cells / adherent mononuclear phagocytes from IL-1 and IFN-gamma insufflated Sprague-Dawley rats
T2 sequence (P22985 whole entry): as above
Protocol: A lung inflammatory response was induced in rats with IL-1 and IFN-γ insufflation. After 8 hours, cells from BALF were recovered from each rat in PBS, pooled, and quantitated. Cells were then divided into two equivalent fractions and exposed to 1 mM KOH or 1 mM KOH with 150 μM allopurinol in vitro. The neutral pH of the PBS and cell mixture was unchanged by adding 1 mM KOH. After 15 min, the cells were washed and resuspended in PBS. Subsequently, 2×10^6 of control or allopurinol treated cells were insufflated into control rats. 24 hours after cell insufflation, BALF cells were recovered from these rats, Wright's stained and quantitated. […] Data are the mean and standard error of 6 rats in each group.
To determine whether XOR induction in MNP could contribute to lung inflammation, we performed a cell transfer experiment. We induced a pulmonary inflammatory response in rats with IL-1 and IFN-γ insufflation, obtained these cells by bronchoalveolar lavage 8 hours later, and then treated these cells with either allopurinol or the vehicle for allopurinol in vitro. After a 15 min exposure to allopurinol or the vehicle, the cells were washed, resuspended in PBS, and then insufflated into control rats. Subsequently, cells were harvested from the BALF of these control rats, stained, and quantitated.

NADPH oxidase = settings: even at relatively high doses; cited from earlier work
superoxide generation = settings: streptozotocin induced diabetes in mice; cited from earlier work
[7] = test system: IL-1 and IFN-γ insufflated rats; test: Differential and total inflammatory cell counts in BALF after cytokine insufflation; type: in vivo, rat; settings: for accumulation of inflammatory cells (BALF cell numbers): diet before IL-1 and IFN-γ insufflation, 24 hours later, allopurinol 50 mg/Kg for seven days (FIG. 4c); for macrophages in BALF (differential analysis) / neutrophils in BALF (differential analysis): 24 hours following insufflation
Source text: (§1) Intratracheal cytokine insufflation.

vascular injury = settings: mice, hemorrhagic shock or LPS injection, prior inhibition of XOR; cited from earlier work
[8] = test system: endothelial injury in the lungs (and gut); settings: heavy smokers and rats subjected to heavy smoking conditions; cited from earlier work
[9] = test system: vascular endothelial function; settings: Type 1 and Type 2 diabetes in humans; cited from earlier work
sarcoidosis = settings: cited from earlier work
[10] = test system: IL-1 and IFN-γ insufflated rats; test: Lung histology (H&E) after cytokine insufflation; settings: diet before IL-1 and IFN-γ insufflation, 24 hours later (FIG. 4d)
XOR [11] = molecular target: T3, XOR (Homo sapiens, UniProt P47989); settings: COPD; cited from earlier work
T3 construct: host or cells: bronchoalveolar lavage fluid of COPD patients
T3 sequence (P47989 whole entry): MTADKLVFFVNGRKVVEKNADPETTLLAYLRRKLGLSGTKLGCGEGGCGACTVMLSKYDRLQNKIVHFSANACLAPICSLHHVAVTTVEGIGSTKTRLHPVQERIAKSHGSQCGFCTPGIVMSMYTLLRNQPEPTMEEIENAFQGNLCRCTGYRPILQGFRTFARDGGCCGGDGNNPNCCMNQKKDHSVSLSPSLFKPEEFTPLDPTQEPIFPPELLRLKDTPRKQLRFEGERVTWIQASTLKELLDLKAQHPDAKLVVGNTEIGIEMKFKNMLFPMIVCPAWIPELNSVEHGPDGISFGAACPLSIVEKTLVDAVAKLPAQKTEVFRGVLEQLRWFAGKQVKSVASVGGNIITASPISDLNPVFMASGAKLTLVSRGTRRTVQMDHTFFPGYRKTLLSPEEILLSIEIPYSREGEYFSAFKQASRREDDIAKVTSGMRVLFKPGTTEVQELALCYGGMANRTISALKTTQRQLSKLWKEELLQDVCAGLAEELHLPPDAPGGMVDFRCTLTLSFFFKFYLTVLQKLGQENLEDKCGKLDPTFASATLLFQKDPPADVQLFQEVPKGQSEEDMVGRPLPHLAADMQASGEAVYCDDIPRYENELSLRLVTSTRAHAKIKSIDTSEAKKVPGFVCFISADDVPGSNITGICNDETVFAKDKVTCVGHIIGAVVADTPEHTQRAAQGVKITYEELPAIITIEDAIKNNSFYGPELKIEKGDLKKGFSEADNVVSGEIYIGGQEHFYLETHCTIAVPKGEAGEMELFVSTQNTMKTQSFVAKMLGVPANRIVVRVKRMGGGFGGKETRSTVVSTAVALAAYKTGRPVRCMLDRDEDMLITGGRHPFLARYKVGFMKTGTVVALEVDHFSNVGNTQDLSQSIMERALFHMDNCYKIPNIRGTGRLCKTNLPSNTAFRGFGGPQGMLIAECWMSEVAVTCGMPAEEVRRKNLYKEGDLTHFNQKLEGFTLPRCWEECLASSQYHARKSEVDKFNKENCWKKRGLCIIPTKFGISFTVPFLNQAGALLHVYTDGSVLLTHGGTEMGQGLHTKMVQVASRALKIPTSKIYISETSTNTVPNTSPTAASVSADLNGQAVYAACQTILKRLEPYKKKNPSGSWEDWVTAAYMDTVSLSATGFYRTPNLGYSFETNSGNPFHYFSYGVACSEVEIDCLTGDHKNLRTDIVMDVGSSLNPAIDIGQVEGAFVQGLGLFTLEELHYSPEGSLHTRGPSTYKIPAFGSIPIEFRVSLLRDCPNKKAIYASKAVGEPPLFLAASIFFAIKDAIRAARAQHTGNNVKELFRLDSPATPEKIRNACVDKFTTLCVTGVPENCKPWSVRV

caspase-3 = test: Activated caspase-3 detection in lung sections; type: in vivo, rat; settings: prior feeding with diet, IL-1 and IFN-γ insufflation 24 hours before (FIG. 4h)
Protocol: Activated caspase-3 detection. Detection of the cleaved, mature, activated caspase-3 was performed on paraffin-embedded sections using the Cell Signaling Technology, Inc (Beverly, Mass.) protocol. First, paraffin-embedded slides were deparaffinized and rehydrated. Incubation with 1% H2O2 for 10 min blocked endogenous peroxidase activity. For antigen unmasking, the tissue sections were microwaved in 10 mM sodium citrate buffer (pH 6.0) for 10 min. Next, the sections were blocked in 5% goat serum for 1 hr at room temperature. Slides were then incubated at 4° C. overnight with caspase-3 antibody specific for the cleaved, mature, form of caspase-3 diluted 1:200 in phosphate buffered saline (Asp-175; Cell Signaling Technology, Inc). This was followed by a 30 min incubation with a 1:200 dilution of goat anti-rabbit antibody (PK-6101; Vector Laboratories, Burlingame, Calif.). A subsequent 30 min incubation with VectaStain Elite ABC reagent (PK-6101; Vector Laboratories) ensued. This reaction was followed by the addition of the DAB substrate kit for peroxidase (SK-4100; Vector Labs). The slides were finally counterstained with hematoxylin (H-3401; Vector Labs), dehydrated and mounted. Caspase-3 positive cells were quantitated by counting the percent positive alveolar cells per field under 100× magnification.

XOR [12] = molecular target: T4, XOR (Rattus norvegicus, UniProt P22985); test: Xanthine oxidoreductase assay, lung tissue extracts of cytokine insufflated rats; type: in vivo; settings: for induction of total lung XOR activity: 24 hours following intratracheal cytokine insufflation (50 ng per rat) compared to saline alone (FIG. 1a); for lung O-form XOR content: lungs 24 h after insufflation, untreated 23%, saline 42% (FIG. 1d)
T4 construct: Total XOR activity in lung and liver tissue was determined using whole tissue protein extracts; from tissue; host or cells: lung (and liver) of Sprague-Dawley rats
T4 sequence (P22985 whole entry): as the sequence (P22985 whole entry) above
Protocol: as §1
(§2) Xanthine oxidoreductase assay. Total XOR activity in lung and liver tissue was determined using whole tissue protein extracts. Briefly, tissues that had been perfused blood free were placed into liquid N2 and stored at −80° C. prior to generating enzyme extracts. Enzyme extracts were prepared by placing frozen specimens in extract buffer (100 mM K-Phosphate, pH 7.8, 1 mM EDTA, 1 mM PMSF). Tissues were thawed in extract buffer on ice and minced. Minced tissues were broken in a rotating dounce using exactly three strokes of the pestle. Tissue homogenates were then centrifuged at 15,000×g at 4° C. for 30 min. Clarified extracts were desalted on 2 cm×20 cm Sephadex G25 columns to remove low molecular weight substances that potentially interfere with enzyme activity (48), and 3 ml of the flow through front were collected. Allopurinol inhibitable XOR activity was determined spectroscopically by measuring uric acid formation from xanthine at 290 nm. The stability of uric acid added to the flow through fraction was determined in the presence and absence of the uricase inhibitor, oxonic acid (OA). […] Evaluation of D-form XOR and O-form XOR was determined by measuring enzymatic activity in the presence and absence of NAD+(49).

XOR [13] = settings: cited from earlier work
XOR [14] = molecular target: T4, XOR; test: XOR activity in BALF cells / adherent MNP of cytokine insufflated rats; settings: in vivo
Protocol: as §1
as §2, with “Clarified extracts were desalted on 2 cm×20 cm Sephadex G25 columns to remove low molecular weight substances that potentially interfere with enzyme activity (48), and 3 ml of the flow through front were collected.” left out
Neutrophils and MNP were recovered from the BALF 24 hours following IL-1 and IFN-γ insufflation and purified on Percoll gradients. […] Although XOR was induced over a 24 hour period in the infiltrating MNP recovered from the lungs of IL-1 and IFN-γ insufflated rats, neither XOR activity or antigen was detected in circulating rat monocytes (not shown). […]

Molecule: Oc1ncnc2[nH]ncc12 [allopurinol]
- leukocyte-chemokine expression and leukocyte accumulation [1]: blocked
- effect in patients with chronic heart failure, cardiomyopathy, or undergoing heart surgery [2]: cardio-protective effect
- Id-2 from BALF cells (Western immunoblot) (Id-2): XOR dependent regulations of MNP Id-2 levels
- markers of leukocyte infiltration in the gut [3]: decreased
- progression of experimentally induced acute gastric mucosal lesions [3]: blocked
- pancreatic fibrosis (pancreatic fibrosis): blocked
- capacity to reduce PMN accumulation in the eye [4]: as effective as steroid treatment
- evidence of pancreatitis and vascular injury [5]: blocked
- development of alveolar apoptosis (TUNEL positive alveolar nuclei) (alveolar cells): attenuated
- I/R induced colonic leukocyte-chemokine expression and leukocyte accumulation [6]: markedly reduced
- recovery of neutrophils in the BALF after insufflation of treated BALF cells (MNP XOR): attenuated
- scavenging of ROS generated from the NADPH oxidase (NADPH oxidase): fails to scavenge
- superoxide generation (superoxide generation): normalized
- accumulation of inflammatory cells (BALF cell numbers) [7]: reduced
- evidence of vascular injury (vascular injury): dramatically attenuated
- endothelial injury in the lungs (and gut) [8]: reduce
- vascular endothelial function [9]: protective
- pulmonary sarcoidosis attributed to BCG vaccination (sarcoidosis; human): completely regressed
- sarcoidosis outcome (sarcoidosis; patients with sarcoidosis): induce remission
- histologic evidence of airway and perivascular inflammation [10]: attenuated
- XOR and evidence of XOR derived oxidative stress (XOR [11]): reduced
- activation of caspase-3 in cytokine insufflated rat lungs (caspase-3): blocked

Molecule: [W] [tungsten]
- XOR activity in the lungs (XOR [12]; tungsten diet before IL-1 and IFN-γ insufflation, 24 hours later, vs control diet (FIG. 4a)): decreased
- mononuclear cell infiltration and rejection signs (XOR [13]; day 9 post-transplantation): significantly ameliorated
- NADPH-oxidase activity (XOR [13]; renal allografts): without any effect
- XOR activity and ROS production (XOR [13]; renal allografts): pronounced reduction
- development of alveolar apoptosis (TUNEL positive alveolar nuclei) (alveolar cells): attenuated
- accumulation of inflammatory cells (BALF cell numbers) [7]: reduced
- XOR activity in the BALF cells (MNP XOR activity) (XOR [14]): decreased
- histologic evidence of airway and perivascular inflammation [10]: attenuated
- activation of caspase-3 in cytokine insufflated rat lungs (caspase-3): blocked

Continued, in another order:

- O-form XOR after DTT reduction (O-form XOR): approximately 23 % of the total XOR
Molecule: O[C@H](CS)[C@H](O)CS (racemic) [DTT, dithiothreitol]

- induction of total lung XOR activity (XOR [12]): negligible response
- lung O-form XOR content (XOR [12]): 52 % of the total XOR activity
B1: interferon-y (protein, UniProt P01581 23-156, looked up)
Interferon gamma: QGTLIESLESLKNYFNSSSMDAMEGKSLLLDIWRNWQKDGNTKILESQIISFYLRLFEVLKDNQAISNNISVIESHLITNFFSNSKAKKDAFMSIAKFEVNNPQIQHKAVNELIRVIHQLSPESSLRKRKRSRC
notes: recombinant rat cytokine insufflated intratracheally to induce lung inflammation
- macrophages in BALF (differential analysis) [7]: ~20%
- neutrophils in BALF (differential analysis) [7]: approximately 80%

- induction of total lung XOR activity (XOR [12]): approximate doubling
- lung O-form XOR content (XOR [12]): 57 % of the total XOR activity
B2: Recombinant rat interleukin-1-α (protein, UniProt P16598 115-270, looked up)
Interleukin-1 alpha: SAPHSFQNNLRYKLIRIVKQEFIMNDSLNQNIYVDMDRIHLKAASLNDLQLEVKFDMYAYSSGGDDSKYPVTLKVSNTQLFVSAQGEDKPVLLKEIPETPKLITGSETDLIFFWEKINSKNYFTSAAFPELLIATKEQSQVHLARGLPSMIDFQIS
notes: as for B1
- macrophages in BALF (differential analysis) [7]: ~20%
- neutrophils in BALF (differential analysis) [7]: approximately 80%
